For this experiment, the target named is T1, rat mGlu 1a receptor (Rattus norvegicus, UniProt P23385).
T1 construct: expressed in transfected cells; host or cells: EBNA cells (transient transfection)
The experiment can be described thus: [Ca2+]i measurements (FLIPR, Fluo-3 AM) on mGlu 1a transfected EBNA cells; agonist or antagonist (against 10 μM glutamate). Type of experiment: cell-based. The note with it: for agonist/antagonist: activity-data table; for Remarks (agonist / antagonist): table of substituents of the Examples, column Remarks; for pIC50: antagonist, tested against 10 μM glutamate as agonist, read-out: IC50 (compounds marked antagonist). The method, then: cDNA encoding rat mGlu 1a receptor obtained from Prof. Nakanishi (Kyoto, Japan) was transiently tranfected into EBNA cells using a procedure described by Schlaeger et. al, New Dev. New Appl. Anim Cell Techn., Proc. ESACT Meet., 15th (1998), 105-112 and 117-120. [Ca^2+ ]i measurements were performed on mGlu 1a transfected EBNA cells after incubation of the cells with Fluo-3 AM (0.5 μM final concentration) for 1hour at 37° C. followed by 4 washes with assay buffer (DMEM supplemented with Hank's salt and 20 mM HEPES. [Ca^2+ ]i measurements were done using a fluorometric imaging plate reader (FLIPR, Molecular Devices Corporation, La Jolla, Calif. USA). When compounds were evaluated as antagonists they were tested against 10 μM glutamate as agonist.
The inhibition (antagonists) or activation (agonists) curves were fitted with a four parameter logistic equation giving EC50, IC50, and Hill coefficient using the iterative non linear curve fitting software Origin (Microcal Software Inc., Northampton, Mass., USA).

Usually pIC50 stands for the IC50 on a negative log10 scale, so that one unit is a factor of ten.

pEC50, pIC50: −log10 of the molar value. Where a name gives a salt, the structure may show the parent alone.

T1 sequence (P23385 19-1199): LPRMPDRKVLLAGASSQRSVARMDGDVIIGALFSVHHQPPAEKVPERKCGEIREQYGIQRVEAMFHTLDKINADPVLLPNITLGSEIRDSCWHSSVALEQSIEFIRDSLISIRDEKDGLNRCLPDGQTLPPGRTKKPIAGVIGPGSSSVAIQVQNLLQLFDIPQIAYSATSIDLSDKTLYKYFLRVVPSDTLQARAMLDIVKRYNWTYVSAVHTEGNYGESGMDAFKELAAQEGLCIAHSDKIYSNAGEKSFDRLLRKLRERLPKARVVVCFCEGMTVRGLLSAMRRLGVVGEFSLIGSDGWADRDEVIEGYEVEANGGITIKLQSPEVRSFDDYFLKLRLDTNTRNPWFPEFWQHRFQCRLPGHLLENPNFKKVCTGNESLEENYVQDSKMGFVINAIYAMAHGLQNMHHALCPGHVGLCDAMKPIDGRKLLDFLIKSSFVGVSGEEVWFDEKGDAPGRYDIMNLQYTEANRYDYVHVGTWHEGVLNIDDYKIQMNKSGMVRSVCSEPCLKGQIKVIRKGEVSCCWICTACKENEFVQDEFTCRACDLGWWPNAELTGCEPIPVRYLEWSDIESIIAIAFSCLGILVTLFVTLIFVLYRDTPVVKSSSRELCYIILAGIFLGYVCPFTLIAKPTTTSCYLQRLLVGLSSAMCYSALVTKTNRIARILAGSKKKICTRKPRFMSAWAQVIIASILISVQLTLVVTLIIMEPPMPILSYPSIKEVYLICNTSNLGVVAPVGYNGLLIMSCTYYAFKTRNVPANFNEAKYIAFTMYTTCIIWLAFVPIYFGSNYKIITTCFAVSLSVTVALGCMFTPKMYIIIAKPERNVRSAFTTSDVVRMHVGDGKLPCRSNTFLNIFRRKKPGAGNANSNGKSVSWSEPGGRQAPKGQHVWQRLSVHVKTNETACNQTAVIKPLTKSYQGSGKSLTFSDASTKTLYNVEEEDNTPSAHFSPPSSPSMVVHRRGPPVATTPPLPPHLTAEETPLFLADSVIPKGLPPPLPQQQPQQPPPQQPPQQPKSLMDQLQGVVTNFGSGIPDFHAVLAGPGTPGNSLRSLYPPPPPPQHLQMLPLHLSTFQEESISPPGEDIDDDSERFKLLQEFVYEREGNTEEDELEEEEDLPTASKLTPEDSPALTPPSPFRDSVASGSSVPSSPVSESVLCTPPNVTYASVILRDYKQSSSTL

`Cc1ccc(S(=O)(=O)N2CCC(C)C2c2ccc(F)cc2)cc1` (racemic) [Example 88, Mixture of (2RS,3RS )- and (2RS,3SR)-2-(4-fluoro-phenyl)-3-methyl-1-(toluene-1-sufonyl)-pyrrolidine]: the “agonistic / antagonistic activity to the mGlu receptor” value (“agonistic / antagonistic activity” below) was “agonistic activty”, the agonist/antagonist result is on record as “agonist” and the “Remarks (agonist / antagonist)” value is given as “agonist”. Further, the pEC50 (agonist, activation of mGlu 1a in EBNA cells, read-out: IC50 (compounds marked agonist)) was 6.21.
On to `Cc1ccc(S(=O)(=O)N2CCCC2c2ccc(F)cc2)cc1Cl` (racemic) [Example 62, (RS)-1-(3-Chloro-4-methyl-benzenesulfonyl)-2-(4-fluoro-phenyl)-pyrrolidine], for which the “Remarks (agonist / antagonist)” value is “Antagonist”.
Consider `O=S(=O)(c1ccc(Cl)cc1)N1CCCC1c1ccc(Cl)cc1` (racemic) [Example 9, (RS)-1-(4-Chloro-benzenesulfonyl)-2-(4-chloro-phenyl)-pyrrolidine], for which the “agonistic / antagonistic activity” value is on record as “agonistic activty” and the “Remarks (agonist / antagonist)” value was “Agonist”.
In the case of `O=S(=O)(c1ccc(Cl)cc1)N1CCCC1c1ccncc1` (racemic) [Example 14, (RS)-4-1-(4-Chloro-benzenesulfonyl)-pyrrolidine-pyridine], the “Remarks (agonist / antagonist)” value was “Agonist”.
Consider `O=S(=O)(c1ccc(Cl)cc1)N1CCCC1c1ccc(F)c(Cl)c1` (racemic) [Example 43, (RS)-1-(4-Chloro-benzenesulfonyl)-2-(3-chloro-4-fluoro-phenyl)-pyrrolidine], for which the “Remarks (agonist / antagonist)” value was “Antagonist”.
With `NCc1ccc(S(=O)(=O)N2CCCC2c2ccc(F)cc2)cc1` (racemic) [Example 87, (RS)-4-[2-(4-Fluoro-phenyl)-pyrrolidine-1-sulfonyl]-benzylamine fumarate (1:0.5)], the “Remarks (agonist / antagonist)” value is given as “Antagonist”.
For `O=S(=O)(c1ccc(Cl)cc1)N1CCCC1c1cccc(Cl)c1` (racemic) [Example 32, (RS)-1-(4-Chloro-benzenesulfonyl)-2-(3-chloro-phenyl)-pyrrolidine], the “Remarks (agonist / antagonist)” value is given as “Antagonist”.
Turning to `Cc1ccc(S(=O)(=O)N2CCCC2c2ccc(Cl)c(Cl)c2)cc1` (racemic) [Example 47, (RS)-2-(3,4-Dichloro-phenyl)-1-(toluene-4-sufonyl)-pyrrolidine], the “Remarks (agonist / antagonist)” value is recorded as “Antagonist”.
As to `Cc1ccc(S(=O)(=O)N2CCCC2c2ccc(Cl)cc2)cc1` (racemic) [Example 8, (RS)-2-(4-Chloro-phenyl)-1-(toluene-4-sulfonyl)-pyrrolidine], the “agonistic / antagonistic activity” value was “agonistic activty” and the “Remarks (agonist / antagonist)” value was “Agonist”.
Consider `O=S(=O)(c1ccc(Cl)cc1)N1CCCC1c1ccc(F)cc1` (racemic) [Example 11, (RS)-1-(4-Chloro-benzenesulfonyl)-2-(4-fluorophenyl)-pyrrolidine], for which the “Remarks (agonist / antagonist)” value is “Agonist”.
Regarding `CCc1ccc(C2CCCN2S(=O)(=O)c2ccc(F)cc2)cc1` (racemic) [Example 80, (RS)-2-(4-Ethyl-phenyl)-1-(4-fluoro-benzenesulfonyl)-pyrrolidine], the “Remarks (agonist / antagonist)” value is recorded as “Antagonist”.
With `O=S(=O)(c1ccc(Cl)cc1)N1CCCC1c1ccsc1` (racemic) [Example 56, (RS)-1-(4-Chloro-benzenesulfonyl)-2-thien-3-yl-pyrrolidine], the “agonistic / antagonistic activity” value is on record as “agonistic activty” and the “Remarks (agonist / antagonist)” value is reported as “Agonist”.
Consider `CCCc1ccc(S(=O)(=O)N2CCCC2c2ccc(F)cc2)cc1` (racemic) [Example 59, (RS)-2-(4-Fluoro-phenyl)-1-(4-propyl-benzenesulfonyl)-pyrrolidine], for which the “Remarks (agonist / antagonist)” value is “Antagonist”.
With `O=S(=O)(c1ccccc1)N1CCCC1c1ccc(C(F)(F)F)cc1` (racemic) [Example 75, (RS)-1-Benzenesulfonyl-2-(4-trifluoromethyl-phenyl)-pyrrolidine], the “Remarks (agonist / antagonist)” value is reported as “Antagonist”.
Consider `O=S(=O)(c1ccc(CO)cc1)N1CCCC1c1ccc(F)cc1` (racemic) [Example 84, (RS)-2-(4-Fluoro-phenyl)-1-(4-hydroxymethyl-benzenesulfonyl)-pyrrolidine], for which the “agonistic / antagonistic activity” value is “agonistic activty” and the “Remarks (agonist / antagonist)” value is reported as “Agonist”.
As to `O=S(=O)(c1ccc(Cl)cc1)N1CCCC1c1cccs1` (racemic) [Example 36, (RS)-1-(4-Chloro-benzenesulfonyl)-2-thien-2-yl-pyrrolidine], the agonist/antagonist entry is reported as “antagonist”, the pIC50 was 6.25 and the “Remarks (agonist / antagonist)” value is listed as “Antagonist”.
On to `CN(C)c1ccc(C2CCCN2S(=O)(=O)c2ccc(F)cc2)cc1Cl` (racemic) [Example 46, (RS)-1-(4-fluoro-benzenesulfonyl)-2-(4-diimethylamino-3-chloro-phenyl)-pyrrolidine], for which the “Remarks (agonist / antagonist)” value is given as “Antagonist”.
In the case of `O=C(O)/C=C/C(=O)O.O=S(=O)(c1ccc(CN2CCOCC2)cc1)N1CCCC1c1ccc(F)cc1` (racemic) [Example 86, (RS)-4-{4-[2-(4-Fluoro-phenyl)-pyrrolidine-1-sulfonyl]-benzyl}-morpholine fumarate (1:1)], the “Remarks (agonist / antagonist)” value is “Antagonist”.
With `Cc1ccccc1S(=O)(=O)N1CCCC1c1ccc(F)cc1` (racemic) [Example 18, (RS)-2-(4-Fluoro-phenyl)-1-(toluene-2-sulfonyl)-pyrrolidine], the agonist/antagonist result is “antagonist”, the pIC50 is 5.86 and the “Remarks (agonist / antagonist)” value was “Antagonist”.
Regarding `Cc1cc(C)c(S(=O)(=O)N2CCCC2c2ccc(F)cc2)c(C)c1` (racemic) [Example 61, (RS)-2-(4-Fluoro-phenyl)-1-(2,4,6-trimethyl-benzenesulfonyl)-pyrrolidine], the “Remarks (agonist / antagonist)” value is given as “Antagonist”.
Still for that read-out and setting: the same measure for `O=S(=O)(c1ccc(Cl)cc1)N1CCCC1c1cccc(F)c1` (racemic) [Example 2, (RS)-1-(4-Chloro-benzenesulfonyl)-2-(3-fluoro-phenyl)-pyrrolidine]: “Agonist”.
For `N#Cc1ccc(S(=O)(=O)N2CCCC2c2ccc(F)cc2)cc1` (racemic) [Example 33, (RS)-2-(4-Fluoro-phenyl)-1-(4-cyano-benzenesulfonyl)-pyrrolidine], the “Remarks (agonist / antagonist)” value is on record as “Antagonist”.
In the case of `Cc1ccc(S(=O)(=O)N2CCCC2c2ccco2)cc1` (racemic) [Example 69, (RS)-2-Furan-2-yl-1-(toluene-4-sulfonyl)-pyrrolidine], the “agonistic / antagonistic activity” value was “agonistic activty” and the “Remarks (agonist / antagonist)” value was “Agonist”.
Consider `N#Cc1ccccc1S(=O)(=O)N1CCCC1c1ccc(F)cc1` (racemic) [Example 65, (RS)-1-(2-Cyano-benzenesulfonyl)-2-(4-fluoro-phenyl)-pyrrolidine], for which the “Remarks (agonist / antagonist)” value is listed as “Antagonist”.
